A short description of data set [1]: Aqueous solvolysis, K value at a pH of 3.0. The class given is ADME. To be noted: buffer, pH 3.
A short description of data set [2]: Half life at a pH of 3.0. The data set is classed as ADME. To be noted: pH 3.
The subject of the next data set is L1210. Briefly: Compound was tested in vitro for cytotoxic potency against L1210 leukemia. The class given is functional, cell-based. The conditions noted are these: Mus musculus.
The nature of data set [3]: Half life at a pH of 2.0. The class given is ADME. To be noted: pH 2.
The nature of data set [4]: Kinetic constant at 0.1 equivalent H+ and 500 equivalent CH3OH. The data set is classed as ADME.
Data set [5] can be described thus: Half life at 0.1 equivalent H+ and 20 equivalent CH3OH. The class given is ADME.
Data set [6] in a line: Aqueous solvolysis, K value at a pH of 2.0. The data set is classed as ADME. To be noted: buffer, pH 2.
Data set [7] is described as follows: Kinetic constant at 0.1 equivalent H+ and 100 equivalent CH3OH. The data set is classed as ADME.
Data set [8] can be described thus: Half life at 0.1 equivalent H+ and 500 equivalent CH3OH. The class given is ADME.
The nature of data set [9]: Kinetic constant at 0.1 equivalent H+ and 20 equivalent CH3OH. The class given is ADME.
Data set [10] can be described thus: Kinetic constant at 0.25 equivalent H+ and 100 equivalent CH3OH. The data set is classed as ADME.
A short description of data set [11]: Half life at 0.25 equivalent H+ and 100 equivalent CH3OH. The data set is classed as ADME.

Each structure is given as a SMILES string. Values joined by “and” are separate entries in the source; they are usually repeats but may differ in a detail not shown here. Equal entries are not always repeated.

What is called half-life is the time in which the quantity being followed falls by half. In general, IC50 refers to the concentration that inhibits the measured activity by half. In data set [1], `CCC(=O)N1C[C@H]2C[C@@]23C1=CC(=O)c1ccccc13` displayed a k of 2e-06 s⁻¹. In data set [2], this molecule showed a half-life of 96 h. In the data set with L1210, this molecule displayed a half-maximal inhibitory concentration (IC50) of 110 nM.
On to `COC(=O)[C@]1(C)N=C2C(=O)C=C3N(C(=O)OC(C)(C)C)C[C@H]4C[C@@]34C2=C1O`, for which the k in [1] was 1.75e-06 s⁻¹. Further, the IC50 in the data set on L1210 is 1000 nM.
In the case of `CC(C)(C)OC(=O)N1C[C@H]2C[C@@]23C1=CC(=O)c1ccc(C#N)cc13`, the half-life was 24.2 h in data set [3], 9.2 h in [5], 213 h in data set [2] and 0.26 h in [11]. Further, the k in data set [4] came to 5.6 s⁻¹; in [6] it was 7.9e-06 s⁻¹; in data set [7] it was 2.1 s⁻¹; in [1] it was 9e-07 s⁻¹; in data set [9], 0.2 s⁻¹; in [10], 7.4 s⁻¹. In addition, in data set [8], the T1/2 is 0.92 h and 0.34 h. The same molecule displayed an IC50 in the data set with L1210 of 20 nM.
The molecule `COC(=O)c1cc2c([nH]1)C(=O)C=C1N(C(=O)OC(C)(C)C)C[C@H]3C[C@]123` had a k in [1] of 1.08e-06 s⁻¹.
With `CC(C)(C)OC(=O)N1C[C@H]2C[C@@]23C1=CC(=O)c1ccccc13`, the results for the k in data set [6] and in data set [1] were 1.53e-05 s⁻¹ and 1.45e-06 s⁻¹, respectively. This molecule gave a half-life in data set [2] of 133 h. The molecule also had an IC50 in the data set with L1210 of 80 nM.
In turn, `Cc1c[nH]c2c1[C@@]13C[C@@H]1CN(C(=O)OC(C)(C)C)C3=CC2=O` came in with a k in data set [1] of 5.26e-06 s⁻¹.
Molecule `CC(C)(C)OC(=O)N1CC[C@H]2C[C@@]23C1=CC(=O)c1ccccc13` returned a k in data set [1] of 9.07e-06 s⁻¹. The same molecule gave a half-life in data set [2] of 2.1 h. For the same molecule, the IC50 in the data set on L1210 is 2000 nM.
In the same order, the values of `CCS(=O)(=O)N1C[C@H]2C[C@@]23C1=CC(=O)c1ccccc13` are 5e-07 s⁻¹, 383 h and 24 nM.
Consider `COc1ccc2c(c1)[C@@]13C[C@@H]1CN(C(=O)OC(C)(C)C)C3=CC2=O`, for which the results for the half-life in [3] and in data set [2] were 11.8 h and 110 h, respectively. The values for the k in [6] and in data set [1] were 1.62e-05 s⁻¹ and 1.75e-06 s⁻¹, respectively. Also, in the data set on L1210, half-maximal inhibition (IC50) was put at 90 nM.
In data set [1], `CC(C)(C)OC(=O)N1C[C@H]2C[C@]23C=CC(=O)C=C13` gave a k of 1.98e-06 s⁻¹. This molecule also had a half-life in data set [2] of 0.01 h. Moreover, in the data set on L1210, the IC50 turned out to be 18000 nM.
The matching figures for `COC(=O)N1C[C@H]2C[C@@]23C1=CC(=O)c1ccccc13`: 3.4e-06 s⁻¹, 57 h and 140 nM.
The matching figures for `CNC(=O)N1C[C@H]2C[C@@]23C1=CC(=O)c1ccccc13`: 5.3e-06 s⁻¹, 36 h and 200 nM.

(Values after ChEMBL document CHEMBL1150513, “A Hammett correlation for CC-1065 and duocarmycin analogs: Magnitude of substituent electronic effects on functional reactivity” (Bioorg Med Chem Lett, 1996).)
